# Measurements as given in ChEMBL document CHEMBL1201862, “PubChem BioAssay data set” (2004).
#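 Assay format: 96-well plates, 48-hour exposure. GI50 marks 50% less growth.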 Activity calls are given as the source filed them. Rule as the data show it: active = GI50 up to about 1.1 µM and inactive = higher.
# Key:
# Test in all cases: NCI anticancer screen, dose series, 48 h
# M19-MEL = system: M19-MEL
# OVCAR-8 = system: OVCAR-8
# DMS-114 = system: DMS-114
# DLD-1 = system: DLD-1
# NCI-H522 = system: NCI-H522
# U-251 = system: U-251
# HOP-18 = system: HOP-18
# SNB-78 = system: SNB-78
# HCT-15 = system: HCT-15
# KM-20L2 = system: KM-20L2
# ACHN = system: ACHN
# A498 = system: A498
# EKVX = system: EKVX
# CCRF-CEM = system: CCRF-CEM
# SW-620 = system: SW-620
# SF-539 = system: SF-539
# 786-0 = system: 786-0
# UO-31 = system: UO-31
# M14 = system: M14
# SR = system: SR
# SK-MEL-5 = system: SK-MEL-5
# SK-MEL-28 = system: SK-MEL-28
# IGROV-1 = system: IGROV-1
# SNB-75 = system: SNB-75
# HOP-62 = system: HOP-62
# RXF 393 = system: RXF 393
# UACC-62 = system: UACC-62
# SN12C = system: SN12C
# RXF 631 = system: RXF 631
# COLO 205 = system: COLO 205
# Malme-3M = system: Malme-3M
# OVCAR-5 = system: OVCAR-5
# RPMI-8226 = system: RPMI-8226
# A549 = system: A549
# OVCAR-3 = system: OVCAR-3
# SF-295 = system: SF-295
# HL-60 = system: HL-60
# KM12 = system: KM12
# LOX IMVI = system: LOX IMVI
# SK-OV-3 = system: SK-OV-3
# SK-MEL-2 = system: SK-MEL-2
# NCI-H226 = system: NCI-H226
# K562 = system: K562
# UACC-257 = system: UACC-257
# OVCAR-4 = system: OVCAR-4
# LXFL 529 = system: LXFL 529
# HOP-92 = system: HOP-92
# HCT-116 = system: HCT-116
# DMS-273 = system: DMS-273
# CAKI-1 = system: CAKI-1
# TK-10 = system: TK-10
# SF-268 = system: SF-268
# NCI-H460 = system: NCI-H460
# HT-29 = system: HT-29
# SNB-19 = system: SNB-19
# HCC 2998 = system: HCC 2998
# NCI-H23 = system: NCI-H23
# MOLT-4 = system: MOLT-4
structure (smiles),measurement,setting,value
O=C(Nc1ccn(CCO)c(=O)n1)c1ccccc1,GI50,M19-MEL,> 100 µM (inactive)
same,GI50,OVCAR-8,> 100 µM (inactive)
same,GI50,DMS-114,> 100 µM (inactive)
same,GI50,DLD-1,> 100 µM (inactive)
same,GI50,NCI-H522,> 100 µM (inactive)
same,GI50,U-251,> 100 µM (inactive)
same,GI50,HOP-18,> 100 µM (inactive)
same,GI50,SNB-78,> 100 µM (inactive)
same,GI50,HCT-15,> 100 µM
same,GI50,KM-20L2,> 100 µM (inactive)
same,GI50,ACHN,> 100 µM (inactive)
same,GI50,A498,> 100 µM (inactive)
same,GI50,EKVX,> 100 µM (inactive)
same,GI50,CCRF-CEM,> 100 µM (inactive)
same,GI50,SW-620,> 100 µM (inactive)
same,GI50,SF-539,> 100 µM (inactive)
same,GI50,786-0,> 100 µM (inactive)
same,GI50,UO-31,> 100 µM (inactive)
same,GI50,M14,> 100 µM (inactive)
same,GI50,SR,> 100 µM (inactive)
same,GI50,SK-MEL-5,> 100 µM (inactive)
same,GI50,SK-MEL-28,> 100 µM (inactive)
same,GI50,IGROV-1,> 100 µM (inactive)
same,GI50,SNB-75,> 100 µM (inactive)
same,GI50,HOP-62,> 100 µM (inactive)
same,GI50,RXF 393,> 100 µM (inactive)
same,GI50,UACC-62,> 100 µM (inactive)
same,GI50,SN12C,> 100 µM (inactive)
same,GI50,RXF 631,> 100 µM (inactive)
same,GI50,COLO 205,> 100 µM (inactive)
same,GI50,Malme-3M,> 100 µM (inactive)
same,GI50,OVCAR-5,> 100 µM (inactive)
same,GI50,RPMI-8226,> 100 µM (inactive)
same,GI50,A549,> 100 µM (inactive)
same,GI50,OVCAR-3,> 100 µM (inactive)
same,GI50,SF-295,> 100 µM (inactive)
same,GI50,HL-60,> 100 µM (inactive)
same,GI50,KM12,> 100 µM (inactive)
same,GI50,LOX IMVI,> 100 µM (inactive)
same,GI50,SK-OV-3,> 100 µM (inactive)
same,GI50,SK-MEL-2,> 100 µM (inactive)
same,GI50,NCI-H226,> 100 µM (inactive)
same,GI50,K562,> 100 µM (inactive)
same,GI50,UACC-257,> 100 µM (inactive)
same,GI50,OVCAR-4,> 100 µM (inactive)
same,GI50,LXFL 529,> 100 µM (inactive)
same,GI50,HOP-92,> 100 µM (inactive)
same,GI50,HCT-116,> 100 µM (inactive)
same,GI50,DMS-273,> 100 µM (inactive)
same,GI50,CAKI-1,> 100 µM (inactive)
same,GI50,TK-10,> 100 µM (inactive)
same,GI50,SF-268,> 100 µM (inactive)
same,GI50,NCI-H460,> 100 µM (inactive)
same,GI50,HT-29,> 100 µM (inactive)
NC(=S)N/N=C1\CCCC\C1=C/c1ccccc1,GI50,M19-MEL,81.1 µM (inactive)
same,GI50,OVCAR-8,> 100 µM (inactive)
same,GI50,DMS-114,37.3 µM (inactive)
same,GI50,DLD-1,33.2 µM (inactive)
same,GI50,NCI-H522,18.7 µM (inactive)
same,GI50,SNB-19,> 100 µM (inactive)
same,GI50,U-251,40.5 µM (inactive)
same,GI50,HOP-18,38.2 µM (inactive)
same,GI50,SNB-78,> 100 µM (inactive)
same,GI50,HCT-15,67.1 µM
same,GI50,KM-20L2,> 100 µM (inactive)
same,GI50,ACHN,> 100 µM (inactive)
same,GI50,A498,> 100 µM (inactive)
same,GI50,EKVX,99.8 µM (inactive)
same,GI50,CCRF-CEM,30.5 µM (inactive)
same,GI50,HCC 2998,> 100 µM (inactive)
same,GI50,SW-620,72.6 µM (inactive)
same,GI50,SF-539,93.8 µM (inactive)
same,GI50,786-0,63.8 µM (inactive)
same,GI50,UO-31,32.5 µM (inactive)
same,GI50,M14,91 µM (inactive)
same,GI50,SK-MEL-28,> 100 µM (inactive)
same,GI50,IGROV-1,25.2 µM (inactive)
same,GI50,SNB-75,30.5 µM (inactive)
same,GI50,HOP-62,> 100 µM (inactive)
same,GI50,RXF 393,23.8 µM (inactive)
same,GI50,UACC-62,57.7 µM (inactive)
same,GI50,NCI-H23,> 100 µM (inactive)
same,GI50,SN12C,39.5 µM (inactive)
same,GI50,RXF 631,89.3 µM (inactive)
same,GI50,MOLT-4,19.6 µM (inactive)
same,GI50,COLO 205,65.6 µM (inactive)
same,GI50,Malme-3M,60.8 µM (inactive)
same,GI50,OVCAR-5,12.8 µM (inactive)
same,GI50,RPMI-8226,15 µM (inactive)
same,GI50,A549,> 100 µM (inactive)
same,GI50,OVCAR-3,39.1 µM (inactive)
same,GI50,SF-295,> 100 µM (inactive)
same,GI50,HL-60,1.88 µM (inactive)
same,GI50,KM12,45.1 µM (inactive)
same,GI50,LOX IMVI,> 100 µM (inactive)
same,GI50,SK-OV-3,> 100 µM (inactive)
same,GI50,SK-MEL-2,73.3 µM (inactive)
same,GI50,K562,2.71 µM (inactive)
same,GI50,UACC-257,17.9 µM (inactive)
same,GI50,OVCAR-4,27 µM (inactive)
same,GI50,LXFL 529,31.4 µM (inactive)
same,GI50,HOP-92,47.2 µM (inactive)
same,GI50,HCT-116,58.2 µM (inactive)
same,GI50,DMS-273,18.5 µM (inactive)
same,GI50,TK-10,39.9 µM (inactive)
same,GI50,SF-268,54 µM (inactive)
same,GI50,NCI-H460,> 100 µM (inactive)
same,GI50,HT-29,20 µM (inactive)
